{"source": "patent US3982012A", "about": "“4-Hydroxy-benzimidazole compounds and therapeutic compositions” (Boehringer Mannheim G.m.b.H., priority 1974, dated 1976)", "key": {"cardiac β-receptor": {"system": "cardiac β-receptor", "assay": "cardiac β-receptor blocking activity: inhibition of isoprenalin tachycardia in wake rabbits", "details": "for LD50/DE250: ratio of mouse i.v. LD50 to rabbit i.v. DE250 (therapeutic breadth); for Heartbeat Frequency x ± sx / DE250: wake rabbits; for Heartbeat Frequency x ± sx: 30 min later isoprenalin i.v.; for DE250: interpolated dosage which limits the frequency increase to 250 beats/min", "method": "(§1) The following tests were carried out to determine (a) the toxicity and (b) the cardiac β-receptor blocking activity of certain test compounds by determining the inhibition of the heart beat frequency increase induced by intravenous administration of isoprenalin.\nb. The β-receptor blocking activity of the test compounds was tested on wake rabbits weighing between 2 to 3.5 kg. and kept in wooden cages. EKG-electrodes were inserted into the hind quarters of the rabbits s.c. (II. lead) and the heart frequency was measured using an integrator (15 seconds) as a digital value. The test compounds were then infused through a small tube to the ear vein of the rabbits over a period of 15 minutes. 30 Minutes after the infusion isoprenalin (3,4-dihydroxy-α-[(isopropylamino)-methyl]-benzylalcohol) was injected intravenously at […]."}, "in vivo": {"assay": "in vivo", "details": "iv, mouse, i.v. (tail vein), five male and five female mice per dosage, read-out: Acute Toxicity LD50 Mouse", "method": "as §1\na. […] The compounds, in dissolved form, were injected into the tail vein of five male and five female mice each in increasing dosages. The results (% of animals which died) were used, via programmed probability analysis, to determine the median lethal dosage (LD50)."}}}
{"smiles": "CC(=O)Nc1ccc(OCC(O)CNC(C)C)cc1", "note": "(stereo not drawn) [Compound A, 4-(2-Hydroxy-3-isopropylamino-propoxy)-acetanilide, reference compound]", "values": [{"measurement": "LD50/DE250", "setting": "cardiac β-receptor", "value": 28}, {"measurement": "Heartbeat Frequency x ± sx", "setting": "cardiac β-receptor; 0.5 mg/kg i.v. infusion", "value": "307 ± 7", "unit": "beats/min"}, {"measurement": "Heartbeat Frequency x ± sx", "setting": "cardiac β-receptor; 1.0 mg/kg i.v. infusion", "value": "264 ± 9", "unit": "beats/min"}, {"measurement": "Heartbeat Frequency x ± sx", "setting": "cardiac β-receptor; 2.0 mg/kg i.v. infusion", "value": "250 ± 4", "unit": "beats/min"}, {"measurement": "Heartbeat Frequency x ± sx", "setting": "cardiac β-receptor; 5.0 mg/kg i.v. infusion", "value": "246 ± 7", "unit": "beats/min"}, {"measurement": "Heartbeat Frequency x ± sx", "setting": "cardiac β-receptor; 10.0 mg/kg i.v. infusion", "value": "217 ± 4", "unit": "beats/min"}, {"measurement": "Heartbeat Frequency x ± sx", "setting": "cardiac β-receptor; 20.0 mg/kg i.v. infusion", "value": "225 ± 6", "unit": "beats/min"}, {"measurement": "DE250", "setting": "cardiac β-receptor", "value": 2.5, "unit": "mg/kg i.v."}]}
{"smiles": "CC(C)NCC(O)COc1cccc2ccccc12", "note": "(stereo not drawn) [Compound B, 1-Isopropylamino-3-(1-naphthoxy)-2-propanol, reference compound]", "values": [{"measurement": "Heartbeat Frequency x ± sx", "setting": "cardiac β-receptor; 0.01 mg/kg i.v. infusion", "value": "342 ± 5", "unit": "beats/min"}, {"measurement": "Heartbeat Frequency x ± sx", "setting": "cardiac β-receptor; 0.1 mg/kg i.v. infusion", "value": "309 ± 9", "unit": "beats/min"}, {"measurement": "Heartbeat Frequency x ± sx", "setting": "cardiac β-receptor; 0.25 mg/kg i.v. infusion", "value": "259 ± 7", "unit": "beats/min"}, {"measurement": "Heartbeat Frequency x ± sx", "setting": "cardiac β-receptor; 0.5 mg/kg i.v. infusion", "value": "248 ± 6", "unit": "beats/min"}, {"measurement": "Heartbeat Frequency x ± sx", "setting": "cardiac β-receptor; 1.0 mg/kg i.v. infusion", "value": "210 ± 8", "unit": "beats/min"}, {"measurement": "Heartbeat Frequency x ± sx", "setting": "cardiac β-receptor; 4.0 mg/kg i.v. infusion", "value": "191 ± 6", "unit": "beats/min"}, {"measurement": "DE250", "setting": "cardiac β-receptor", "value": 0.400, "unit": "mg/kg i.v."}]}
{"smiles": "CC(C)NCC(O)COc1cccc2nc[nH]c12", "note": "(stereo not drawn) [Compound I, 4-(3-Isopropylamino-2-hydroxy-propyloxy)-benzimidazole]", "values": [{"measurement": "LD50", "setting": "in vivo", "value": 38, "unit": "mg/kg"}, {"measurement": "LD50/DE250", "setting": "cardiac β-receptor", "value": 422}, {"measurement": "Heartbeat Frequency x ± sx", "setting": "cardiac β-receptor; 0.01 mg/kg i.v. infusion", "value": "300 ± 11", "unit": "beats/min"}, {"measurement": "Heartbeat Frequency x ± sx", "setting": "cardiac β-receptor; 0.05 mg/kg i.v. infusion", "value": "292 ± 17", "unit": "beats/min"}, {"measurement": "Heartbeat Frequency x ± sx", "setting": "cardiac β-receptor; 0.1 mg/kg i.v. infusion", "value": "239 ± 6", "unit": "beats/min"}, {"measurement": "Heartbeat Frequency x ± sx", "setting": "cardiac β-receptor; 0.5 mg/kg i.v. infusion", "value": "228 ± 5", "unit": "beats/min"}, {"measurement": "Heartbeat Frequency x ± sx", "setting": "cardiac β-receptor; 1.0 mg/kg i.v. infusion", "value": "218 ± 11", "unit": "beats/min"}, {"measurement": "Heartbeat Frequency x ± sx", "setting": "cardiac β-receptor; 5.0 mg/kg i.v. infusion", "value": "219 ± 13", "unit": "beats/min"}, {"measurement": "DE250", "setting": "cardiac β-receptor", "value": 0.09, "unit": "mg/kg i.v."}]}
{"smiles": "CC(C)(C)NCC(O)COc1cccc2nc[nH]c12", "note": "(stereo not drawn) [Compound II, 4-(3-tert.-Butylamino-2-hydroxy-propyloxy)-benzimidazole]", "values": [{"measurement": "LD50", "setting": "in vivo", "value": 28, "unit": "mg/kg"}, {"measurement": "LD50/DE250", "setting": "cardiac β-receptor", "value": 560}, {"measurement": "Heartbeat Frequency x ± sx", "setting": "cardiac β-receptor; 0.01 mg/kg i.v. infusion", "value": "286 ± 12", "unit": "beats/min"}, {"measurement": "Heartbeat Frequency x ± sx", "setting": "cardiac β-receptor; 0.1 mg/kg i.v. infusion", "value": "236 ± 6", "unit": "beats/min"}, {"measurement": "Heartbeat Frequency x ± sx", "setting": "cardiac β-receptor; 1.0 mg/kg i.v. infusion", "value": "244 ± 9", "unit": "beats/min"}, {"measurement": "Heartbeat Frequency x ± sx", "setting": "cardiac β-receptor; 5.0 mg/kg i.v. infusion", "value": "273 ± 11", "unit": "beats/min"}, {"measurement": "DE250", "setting": "cardiac β-receptor", "value": 0.05, "unit": "mg/kg i.v."}]}
{"smiles": "Cc1nc2cccc(OCC(O)CNC(C)C)c2[nH]1", "note": "(stereo not drawn) [Compound III, 2-Methyl-4-(3-isopropylamino-2-hydroxy-propyloxy)-benzimidazole]", "values": [{"measurement": "LD50", "setting": "in vivo", "value": 29, "unit": "mg/kg"}, {"measurement": "LD50/DE250", "setting": "cardiac β-receptor", "value": 170}, {"measurement": "Heartbeat Frequency x ± sx", "setting": "cardiac β-receptor; 0.01 mg/kg i.v. infusion", "value": "303 ± 17", "unit": "beats/min"}, {"measurement": "Heartbeat Frequency x ± sx", "setting": "cardiac β-receptor; 0.05 mg/kg i.v. infusion", "value": "318 ± 11", "unit": "beats/min"}, {"measurement": "Heartbeat Frequency x ± sx", "setting": "cardiac β-receptor; 0.1 mg/kg i.v. infusion", "value": "255 ± 9", "unit": "beats/min"}, {"measurement": "Heartbeat Frequency x ± sx", "setting": "cardiac β-receptor; 1.0 mg/kg i.v. infusion", "value": "234 ± 11", "unit": "beats/min"}, {"measurement": "Heartbeat Frequency x ± sx", "setting": "cardiac β-receptor; 5.0 mg/kg i.v. infusion", "value": "219 ± 14", "unit": "beats/min"}, {"measurement": "DE250", "setting": "cardiac β-receptor", "value": 0.17, "unit": "mg/kg i.v."}]}
{"smiles": "Cc1nc2cccc(OCC(O)CNC(C)(C)C)c2[nH]1", "note": "(stereo not drawn) [Compound IV, 2-Methyl-4-(3-tert.-butylamino-2-hydroxy-propyloxy)-benzimidazole]", "values": [{"measurement": "LD50", "setting": "in vivo", "value": 34, "unit": "mg/kg"}, {"measurement": "LD50/DE250", "setting": "cardiac β-receptor", "value": 425}, {"measurement": "Heartbeat Frequency x ± sx", "setting": "cardiac β-receptor; 0.01 mg/kg i.v. infusion", "value": "289 ± 18", "unit": "beats/min"}, {"measurement": "Heartbeat Frequency x ± sx", "setting": "cardiac β-receptor; 0.05 mg/kg i.v. infusion", "value": "255 ± 7", "unit": "beats/min"}, {"measurement": "Heartbeat Frequency x ± sx", "setting": "cardiac β-receptor; 0.1 mg/kg i.v. infusion", "value": "248 ± 7", "unit": "beats/min"}, {"measurement": "Heartbeat Frequency x ± sx", "setting": "cardiac β-receptor; 0.5 mg/kg i.v. infusion", "value": "224 ± 8", "unit": "beats/min"}, {"measurement": "Heartbeat Frequency x ± sx", "setting": "cardiac β-receptor; 1.0 mg/kg i.v. infusion", "value": "211 ± 5", "unit": "beats/min"}, {"measurement": "Heartbeat Frequency x ± sx", "setting": "cardiac β-receptor; 5.0 mg/kg i.v. infusion", "value": "232 ± 5", "unit": "beats/min"}, {"measurement": "DE250", "setting": "cardiac β-receptor", "value": 0.08, "unit": "mg/kg i.v."}]}
